ChEMBL document CHEMBL4118187, “In vitro activity of salicylamide derivatives against vancomycin-resistant enterococci” (Bioorg Med Chem Lett, 2018)
In brackets after ≈: the same amount, converted by molar mass. Activity calls are given as the source filed them. The rule behind the calls is not given here.

Columns and labels:
Enterococcus faecalis [1] = assay: Antibacterial activity against vancomycin-resistant Enterococcus faecalis 342B after 24 hrs; assay type: functional
Enterococcus faecalis [2] = assay: Antibacterial activity against vancomycin-susceptible Enterococcus faecalis ATCC 29212 after 24 hrs; assay type: functional; conditions: ATCC 29212, 24 h
Enterococcus faecalis [3] = assay: Antibacterial activity against vancomycin-resistant Enterococcus faecalis 725B after 24 hrs; assay type: functional
Enterococcus faecalis [4] = assay: Antibacterial activity against vancomycin-resistant Enterococcus faecalis 368 after 24 hrs; assay type: functional; conditions: Enterococcus faecalis, 368, 24 h
Enterococcus faecalis [5] = assay: Antibacterial activity against vancomycin-resistant Enterococcus faecalis 368 assessed as vancomycin concentration causing additive effect after 18 hrs after 18 hrs by checkerboard assay; assay type: functional
Enterococcus faecalis [6] = assay: Antibacterial activity against vancomycin-resistant Enterococcus faecalis 342B assessed as vancomycin concentration causing additive effect after 18 hrs by checkerboard assay; assay type: functional
Enterococcus faecalis [7] = assay: Antibacterial activity against vancomycin-resistant Enterococcus faecalis 368 assessed as tetracycline concentration causing additive effect after 18 hrs after 18 hrs by checkerboard assay; assay type: functional
Enterococcus faecalis [8] = assay: Antibacterial activity against vancomycin-resistant Enterococcus faecalis 342B in presence of tetracycline after 18 hrs by checkerboard assay; assay type: functional
Enterococcus faecalis [9] = assay: Antibacterial activity against vancomycin-resistant Enterococcus faecalis 368 assessed as compound concentration causing synergistic effect after 18 hrs in presence of vancomycin by checkerboard assay; assay type: functional
Enterococcus faecalis [10] = assay: Antibacterial activity against vancomycin-resistant Enterococcus faecalis 725B assessed as ciprofloxacin concentration causing additive effect after 18 hrs by checkerboard assay; assay type: functional
Enterococcus faecalis [11] = assay: Antibacterial activity against vancomycin-resistant Enterococcus faecalis 368 assessed as compound concentration causing additive effect after 18 hrs in presence of tetracycline after 18 hrs by checkerboard assay; assay type: functional
Enterococcus faecalis [12] = assay: Antibacterial activity against vancomycin-resistant Enterococcus faecalis 342B assessed as compound concentration causing additive effect after 18 hrs in presence of vancomycin by checkerboard assay; assay type: functional
Enterococcus faecalis [13] = assay: Antibacterial activity against vancomycin-resistant Enterococcus faecalis 725B in presence of ciprofloxacin after 18 hrs by checkerboard assay; assay type: functional
Enterococcus faecalis [14] = assay: Antibacterial activity against vancomycin-resistant Enterococcus faecalis 368 assessed as compound concentration causing additive effect after 18 hrs in presence of vancomycin after 18 hrs by checkerboard assay; assay type: functional
Enterococcus faecalis [15] = assay: Antibacterial activity against vancomycin-resistant Enterococcus faecalis 342B in presence of vancomycin after 18 hrs by checkerboard assay; assay type: functional
Enterococcus faecalis [16] = assay: Antibacterial activity against vancomycin-resistant Enterococcus faecalis 368 assessed as vancomycin concentration causing synergistic effect after 18 hrs by checkerboard assay; assay type: functional
Enterococcus faecalis [17] = assay: Antibacterial activity against vancomycin-resistant Enterococcus faecalis 368 in presence of vancomycin after 18 hrs by checkerboard assay; assay type: functional
Enterococcus faecalis [18] = assay: Antibacterial activity against vancomycin-resistant Enterococcus faecalis 725B assessed as compound concentration causing additive effect after 18 hrs in presence of ciprofloxacin by checkerboard assay; assay type: functional
Enterococcus faecalis [19] = assay: Antibacterial activity against vancomycin-resistant Enterococcus faecalis 725B in presence of vancomycin after 18 hrs by checkerboard assay; assay type: functional
Enterococcus faecalis [20] = assay: Antibacterial activity against vancomycin-resistant Enterococcus faecalis 368 in presence of tetracycline after 18 hrs by checkerboard assay; assay type: functional
Enterococcus faecalis [21] = assay: Antibacterial activity against vancomycin-resistant Enterococcus faecalis 725B in presence of tetracycline after 18 hrs by checkerboard assay; assay type: functional
Enterococcus faecalis [22] = assay: Antibacterial activity against vancomycin-resistant Enterococcus faecalis 342B assessed as tetracycline concentration causing additive effect after 18 hrs by checkerboard assay; assay type: functional
Enterococcus faecalis [23] = assay: Bacteriostatic activity against vancomycin-resistant Enterococcus faecalis 725B up to 24 hrs by time kill assay; assay type: functional, organism-based
Enterococcus faecalis [24] = assay: Bacteriostatic activity against vancomycin-resistant Enterococcus faecalis 342B up to 24 hrs by time kill assay; assay type: functional, organism-based
Enterococcus faecalis [25] = assay: Antibacterial activity against vancomycin-resistant Enterococcus faecalis 342B assessed as compound concentration causing additive effect after 18 hrs in presence of tetracycline by checkerboard assay; assay type: functional
[26] = Cytotoxicity against human THP1 cells after 24 hrs by LDH release assay; assay type: cell-based; conditions: THP-1 cells, read-out: LD50
[27] = Selectivity index, ratio of LD50 for human THP1 cells to MIC for vancomycin-resistant Enterococcus faecalis 342B; assay type: toxicity; conditions: THP-1 cells, read-out: Selectivity Index

Compound	MBC (Enterococcus faecalis [1]) [µM]	MIC (Enterococcus faecalis [1]) [µM]	MBC (Enterococcus faecalis [2]) [µM]	MIC (Enterococcus faecalis [2]) [µM]	MBC (Enterococcus faecalis [3]) [µM]	MIC (Enterococcus faecalis [3]) [µM]	MBC (Enterococcus faecalis [4]) [µM]	MIC (Enterococcus faecalis [4]) [µM]	Activity (Enterococcus faecalis [5]) [µg/mL]	Activity (Enterococcus faecalis [6]) [µg/mL]	FIC (Enterococcus faecalis [8])	Activity (Enterococcus faecalis [10]) [µg/mL]	Activity (Enterococcus faecalis [12]) [µg/mL]	FIC (Enterococcus faecalis [13])	Activity (Enterococcus faecalis [14]) [µg/mL]	FIC (Enterococcus faecalis [15])	FIC (Enterococcus faecalis [17])	Activity (Enterococcus faecalis [18]) [µg/mL]	FIC (Enterococcus faecalis [19])	FIC (Enterococcus faecalis [20])	other results
CC(C)[C@H](NC(=O)OCc1ccccc1)C(=O)Oc1ccc([N+](=O)[O-])cc1C(=O)Nc1ccc(Cl)cc1	> 466	> 466	> 466	> 466	> 466	> 466	> 466	> 466													
O=C(Nc1ccc(C(F)(F)F)cc1)c1cc(Cl)ccc1O	25.3 (≈ 8 µg/mL)	0.396 (≈ 0.125 µg/mL)	6.34 (≈ 2 µg/mL)	0.199 (≈ 0.0628 µg/mL)	25.3 (≈ 8 µg/mL)	0.792 (≈ 0.25 µg/mL)	> 810	3.16 (≈ 0.998 µg/mL)	32	256	1.008 - 1.5	32	0.5	0.532 - 1.125	0.25	0.75 - 1.25	0.375 - 1.064	0.125	1 - 1.25	0.625 - 1.25	Activity (Enterococcus faecalis [7]): 8 µg/mL; Activity (Enterococcus faecalis [9]): 0.125 µg/mL; Activity (Enterococcus faecalis [11]): 0.25 µg/mL; Activity (Enterococcus faecalis [16]): 128 µg/mL; FIC (Enterococcus faecalis [21]): 1.032 - 1.5
O=C(Nc1ccc([N+](=O)[O-])cc1)c1cc(Cl)ccc1O	6.83 (≈ 2 µg/mL)	1.71 (≈ 0.5 µg/mL)	6.83 (≈ 2 µg/mL)	0.85 (≈ 0.249 µg/mL)	6.83 (≈ 2 µg/mL)	3.42 (≈ 1 µg/mL)	> 874	13.7 (≈ 4 µg/mL)	512	64	0.75 - 1.25	64	0.063	1 - 1.25	0.063	1 - 2.25	0.625 - 1.25	0.008	1.063 - 1.5	0.75 - 1.25	Activity (Enterococcus faecalis [7]): 16 µg/mL; Activity (Enterococcus faecalis [22]): 16 µg/mL; Activity (Enterococcus faecalis [11]): 1 µg/mL; Activity (Enterococcus faecalis [23]): Active; Activity (Enterococcus faecalis [24]): Active; Activity (Enterococcus faecalis [25]): 0.5 µg/mL; FIC (Enterococcus faecalis [21]): 1.032 - 2.125
O=C(Nc1ccc(Cl)c(Cl)c1)c1ccc(Cl)cc1O	25.3 (≈ 8 µg/mL)	0.199 (≈ 0.063 µg/mL)	1.58 (≈ 0.5 µg/mL)	0.395 (≈ 0.125 µg/mL)	25.3 (≈ 8 µg/mL)	0.199 (≈ 0.063 µg/mL)	202 (≈ 63.9 µg/mL)	0.79 (≈ 0.25 µg/mL)	256	256	1.016 - 1.508	32	0.032	0.756 - 1.25	0.25	0.629 - 1.128	1 - 1.25	0.032	1.031 - 2.234	1.016 - 1.504	CC50 at 24 h [26]: 25.6 µM; selectivity ratio [27]: 128; FIC (Enterococcus faecalis [21]): 1.016 - 1.504
CC(C)[C@H](NC(=O)OCc1ccccc1)C(=O)Oc1ccc(Cl)cc1C(=O)Nc1ccc([N+](=O)[O-])cc1	> 486	> 486	> 486	> 486	> 486	> 486	> 486	> 486													
CC(C)[C@H](NC(=O)c1cc(Cl)ccc1O)C(=O)Nc1ccc(C(F)(F)F)cc1	> 617	> 617	19.3 (≈ 8 µg/mL)	19.3 (≈ 8 µg/mL)	> 617	> 617	> 617	> 617													
CN(C)[C@@H]1C(O)=C(C(N)=O)C(=O)[C@@]2(O)C(O)=C3C(=O)c4c(O)cccc4[C@@](C)(O)[C@H]3C[C@@H]12 [TETRACYCLINE]		144 (≈ 64 µg/mL)				144 (≈ 64 µg/mL)		144 (≈ 64 µg/mL)													
O=C(Nc1ccccc1)c1cc(Cl)ccc1O	> 1030	64.6 (≈ 16 µg/mL)	1.01 (≈ 0.25 µg/mL)	0.5 (≈ 0.124 µg/mL)	516 (≈ 128 µg/mL)	129 (≈ 32 µg/mL)	1030 (≈ 256 µg/mL)	129 (≈ 32 µg/mL)													CC50 at 24 h [26]: > 40 µM
